A word on the IC50: it is the concentration that gives 50% inhibition. Higher therefore signals weaker potency in that assay.

We go through eleven compounds from ChEMBL document CHEMBL1128884, “Selective inhibition of the tyrosine kinase pp60src by analogs of 5,10-dihydropyrimido[4,5-b]quinolin-4(1H)-one” (Bioorg Med Chem Lett, 1995).

Assay [1] concerns the target cAMP-dependent protein kinase (PKA) (Homo sapiens, UniProt P22694+P17612+P22612). The assay can be described thus: Inhibition of cAMP-dependent kinase (Protein kinase A). Type of assay: protein assay.
The target in assay [2] is Proto-oncogene tyrosine-protein kinase Src (Homo sapiens, UniProt P12931). The assay can be described thus: Inhibition of cellular oncogene pp60 c-src.
Assay [3] deals with Epidermal growth factor receptor (Homo sapiens, UniProt P00533). Put plainly: Inhibition of epidermal growth factor receptor (EGFR).
Sequence of Epidermal growth factor receptor (P00533 whole entry): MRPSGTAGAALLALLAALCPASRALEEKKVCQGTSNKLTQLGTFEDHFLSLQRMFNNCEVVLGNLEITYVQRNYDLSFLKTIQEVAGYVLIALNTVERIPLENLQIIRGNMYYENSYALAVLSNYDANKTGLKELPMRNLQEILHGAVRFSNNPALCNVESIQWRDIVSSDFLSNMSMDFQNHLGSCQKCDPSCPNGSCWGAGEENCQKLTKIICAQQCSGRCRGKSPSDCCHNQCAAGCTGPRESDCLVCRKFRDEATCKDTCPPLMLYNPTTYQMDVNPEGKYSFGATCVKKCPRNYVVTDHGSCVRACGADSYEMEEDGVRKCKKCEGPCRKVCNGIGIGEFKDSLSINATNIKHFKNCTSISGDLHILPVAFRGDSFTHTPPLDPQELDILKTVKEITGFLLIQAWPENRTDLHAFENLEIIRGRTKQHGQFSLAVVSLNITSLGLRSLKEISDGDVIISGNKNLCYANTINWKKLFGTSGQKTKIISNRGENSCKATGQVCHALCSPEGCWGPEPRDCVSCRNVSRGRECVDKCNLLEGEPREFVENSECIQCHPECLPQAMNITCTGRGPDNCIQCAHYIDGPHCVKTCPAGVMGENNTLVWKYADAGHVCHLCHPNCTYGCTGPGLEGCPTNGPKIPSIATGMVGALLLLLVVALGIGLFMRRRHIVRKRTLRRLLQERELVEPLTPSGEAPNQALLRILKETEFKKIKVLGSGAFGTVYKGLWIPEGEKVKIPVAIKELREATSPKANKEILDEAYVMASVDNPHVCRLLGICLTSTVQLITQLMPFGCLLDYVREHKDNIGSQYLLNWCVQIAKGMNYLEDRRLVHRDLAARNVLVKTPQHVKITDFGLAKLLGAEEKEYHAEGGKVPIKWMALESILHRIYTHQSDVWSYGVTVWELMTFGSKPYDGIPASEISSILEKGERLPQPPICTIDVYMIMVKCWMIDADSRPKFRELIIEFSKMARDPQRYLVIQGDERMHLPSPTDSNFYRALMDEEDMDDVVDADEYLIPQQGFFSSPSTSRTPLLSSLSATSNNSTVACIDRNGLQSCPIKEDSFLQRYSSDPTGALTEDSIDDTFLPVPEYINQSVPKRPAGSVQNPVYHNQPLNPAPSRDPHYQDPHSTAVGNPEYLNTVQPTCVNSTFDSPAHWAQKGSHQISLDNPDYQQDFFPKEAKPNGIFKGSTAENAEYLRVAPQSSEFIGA

Sequence of Proto-oncogene tyrosine-protein kinase Src (P12931 2-536 limits assumed): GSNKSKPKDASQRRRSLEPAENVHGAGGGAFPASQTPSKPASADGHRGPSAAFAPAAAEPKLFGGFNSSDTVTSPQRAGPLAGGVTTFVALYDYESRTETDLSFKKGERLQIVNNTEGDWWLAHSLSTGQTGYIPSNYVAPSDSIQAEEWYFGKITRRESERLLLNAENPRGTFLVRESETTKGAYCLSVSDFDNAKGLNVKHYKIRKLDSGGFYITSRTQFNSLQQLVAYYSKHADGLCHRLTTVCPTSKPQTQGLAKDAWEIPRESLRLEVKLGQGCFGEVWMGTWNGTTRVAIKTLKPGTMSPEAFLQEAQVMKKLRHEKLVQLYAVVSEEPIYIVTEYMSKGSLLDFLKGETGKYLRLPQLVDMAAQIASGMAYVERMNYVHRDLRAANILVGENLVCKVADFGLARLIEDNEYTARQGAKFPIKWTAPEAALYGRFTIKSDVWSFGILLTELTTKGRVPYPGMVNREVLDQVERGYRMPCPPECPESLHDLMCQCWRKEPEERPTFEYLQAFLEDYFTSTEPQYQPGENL

Regarding `COc1ccc2c(c1)Cc1c(O)ncnc1N2`, the IC50 is greater than 3000 µM in assay [1] and 3.7 µM in assay [2].

`Oc1cc(Nc2ccccc2)ncn1`: the IC50 in assay [1] is greater than 4000 µM; in assay [2], 1550 µM.

As for `CCN1c2ccccc2Cc2c(O)ncnc21`, the IC50 is greater than 960 µM in assay [1] and 550 µM in assay [2].

`COc1cc2c(cc1OC)Nc1ncn(C)c(=O)c1C2`: the values for the IC50 in assay [3], in assay [1] and in assay [2] were 160 µM, greater than 3000 µM and 1.2 µM, respectively.

`COc1cc2cc3c(O)ncnc3nc2cc1OC`: the IC50 in assay [1] is greater than 750 µM; in assay [2], 32 µM.

Take `COc1ccc2c(c1)Nc1ncnc(O)c1C2`: the IC50 is greater than 3000 µM in assay [1] and 0.5 µM in assay [2].

For `COc1cc2c(cc1OC)Nc1ncn(CCN3CCOCC3)c(=O)c1C2`, the IC50 in assay [1] was greater than 1000 µM; in assay [2], 105 µM.

Consider `CCc1nc(O)c2c(n1)Nc1ccccc1C2`, for which the values for the concentration for half-maximal inhibition (IC50) in assay [1] and in assay [2] were greater than 3000 µM and 38 µM, respectively.

As for `Oc1[nH]cnc2nc3ccccc3c1-2`, the 50% inhibitory concentration (IC50) in assay [2] was determined as 293 µM.

Turning to `Oc1ncnc2c1Cc1ccccc1N2`, the concentration for half-maximal inhibition (IC50) in assay [1] is greater than 3000 µM; in assay [2] it was 9.1 µM.

Regarding `COc1cc2c(cc1OC)Nc1ncnc(O)c1C2`, the IC50 in assay [3] is 75 µM; in assay [1], greater than 3000 µM; in assay [2], 0.5 µM.
